# Reference: patent US8754057B2, “Inhibition of apoptosis-specific eIF-5A(eIF-5A1″) with antisense oligonucleotides and siRNA as anti-inflammatory therapeutics” (Senesco Technologies, Inc., priority 2003, dated 2014)
# *1 amine or outer side, *2 acyl side, *3 side chain or, on linkers, in order; H or OH if unused. Where a SMILES comes first, the peptide text is derived from it. Bridges are numbered along the chain shown (N, C = ends). Roman numbers before positions name the chains, in order. [ ]: non-standard residue; d: D form. Actinocin(9to1) = Cc1c2oc3c(C)ccc(C(=O)[*:1])c3nc-2c(C(=O)[*:2])c(N)c1=O; NMeV = CN[C@H](C(=O)O)C(C)C; Sar = CNCC(=O)O
# Key:
# Assay type in all cases: cell-based, human
# [1] = tested on: lamina cribrosa cell line #506; experiment: Hoescht staining apoptosis of siRNA-transfected lamina cribrosa cells treated with TNF-α and camptothecin; settings: LC #506, 72 h after siRNA transfection, 24 h 10 ng/ml TNF-α plus 50 μM camptothecin
# Method: Lamina cribrosa cell line #506 cells were seeded at 7500 cells per well onto an 8-well culture slide. Three days later the LC cells were transfected with either GAPDH siRNA, apoptosis-specific eIF-5A siRNAs #1-4 (SEQ ID NO:30-33), or control siRNA #5 (SEQ ID NO:34). 72 hours after transfection, the transfected cells were treated with 10 ng/ml TNF-α plus 50 μM camptothecin. Twenty-four hours later the cells were stained with Hoescht 33258 and viewed by fluorescence microscopy using a UV filter. Cells with brightly stained condensed or fragmented nuclei were counted as apoptotic. This graph represents the average of n=4 independent experiments.
# Following transfection, RKO and lamina cribrosa cells were incubated for 72 hours prior to collection of cellular extract for Western blot analysis. In order to determine the effectiveness of the siRNAs directed against apoptosis-specific eIF-5A to block apoptosis, lamina cribrosa cells were treated with 50 μM of camptothecin (Sigma) and 10 ng/ml of TNF-α (Leinco Technologies) to induce apoptosis either 48 or 72 hours after transfection. The cells were stained with Hoescht either 24 or 48 hours later in order to determine the percentage of cells undergoing apoptosis.
# Small inhibitory RNAs (siRNAs) directed against human apoptosis-specific eIF-5A were used to specifically suppress expression of eIF5A in lamina cribrosa cells. Six siRNAs were generated by in vitro transcription using the Silencer™ siRNA Construction Kit (Ambion Inc.), Four siRNAs were generated against human apoptosis-specific eIF-5A (siRNAs #1 to #4). […] The siRNAs were generated according to the manufacturer's protocol. The eIF5A and control siRNA targets had the following sequences: siRNA #1 5′ […] 3′ (SEQ ID NO: 81); siRNA #2 5′ […] 3′ (SEQ ID NO: 82); siRNA #3 5′ […] 3′ (SEQ ID NO: 83); siRNA #4 5′ […] 3′ (SEQ ID NO: 84); siRNA #5′ […] 3′ (SEQ ID NO: 85). Lamina cribrosa cells were transfected with siRNA using LipofectAMINE 2000.
# Lamina cribrosa cells were transfected when cell confluence was at 40 to 70% and were generally seeded onto 8-well culture slides at 7500 cells per well three days prior to transfection. Transfection medium sufficient for one well of an 8-well culture slide was prepared by diluting 25.5 proles of siRNA to a final volume of 21.2 μl in Opti-Mem (Sigma). 0.425 μl of Lipofectamine 2000 was diluted to a final volume of 21.2 μl in Opti-Mem and incubated for 7 to 10 minutes at room temperature. The diluted Lipofectamine 2000 mixture was then added to the diluted siRNA mixture and incubated together at room temperature for 20 to 30 minutes, The cells were washed once with serum-free media before adding 135 μl of serum-free media to the cells and overlaying 42.4 μl of transfection medium. […]
# [2] = tested on: lamina cribrosa cell line #506; settings: 48 hours; Hoescht staining
# Method: FIG. 83 is a graph showing percent apoptosis of lamina cribrosa cell line #506 in response to treatment with camptothecin and TNF-α. Lamina cribrosa cell line #506 cells were seeded at 40,000 cells per well onto an 8-well culture slide. Three days later the confluent LC cells were treated with either 10 ng/ml TNF-α, 50 μM camptothecin, or 10 ng/ml TNF-α plus 50 μM camptothecin. An equivalent volume of DMSO, a vehicle control for camptothecin, was added to the untreated control cells. The cells were stained with Hoescht 33258 48 hours after treatment and viewed by fluorescence microscopy using a UV filter. Cells with brightly stained condensed or fragmented nuclei were counted as apoptotic.
# Apoptosis was induced in lamina cribrosa cells using a combination of 50 μM camptothecin (Sigma) and 10 ng/ml TNF-α (Leinco Technologies).
# Since TNF-α is believed to play an important role during the glaucomatous process, the susceptibility of LC cells to the cytotoxic effects of TNF-α was examined. Confluent LC cells were exposed to either camptothecin, TNF-α, or a combination of camptothecin and TNF-α for 48 hours (FIG. 83).
# [3] = tested on: lamina cribrosa cell line #506; experiment: TUNEL labeling of siRNA-transfected LC cells treated with TNF-α and camptothecin; settings: LC #506, TNF-α and camptothecin 24 h
# Method: Lamina cribrosa cell line #506 cells were seeded at 7500 cells per well onto an 8-well culture slide. Three days later the LC cells were transfected with either apoptosis-specific eIF-5A siRNA #1 (SEQ ID NO:30) or control siRNA #5 (SEQ ID NO:34). 72 hours after transfection, the transfected cells were treated with 10 ng/ml TNF-α plus 50 μM camptothecin. Twenty-four hours later the cells were stained with Hoescht 33258 and DNA fragmentation was evaluated in situ using the terminal deoxynucleotidyl transferase-mediated dUTP-digoxigenin nick end labeling (TUNEL) method. Panel A represents the slide observed by fluorescence microscopy using a fluorescein filter to visualize TUNEL-labeling of the fragmented DNA of apoptotic cells. Panel B represents the same slide observed by through a UV filter to visualize the Hoescht-stained nuclei. The results are representative of two independent experiments. All pictures were taken at 400 times magnification.
# Transfected cells that had been treated with TNF-α and camptothecin for 24 hours were stained with Hoescht 33258 in order to determine the percentage of cells undergoing apoptosis. Briefly, cells were fixed with a 3:1 mixture of absolute methanol and glacial acetic acid and then incubated with Hoescht stain (0.5 μg/ml Hoescht 33258 in PBS). After a 10 minute incubation in the dark, the staining solution was discarded, the chambers separating the wells of the culture slide were removed, and the slide was washed 3 times for 1 minute with deionized water. After washing, a few drops of Mcllvaine's buffer (0.021 M citric acid, 0.058 M Na2HPO4.7H2O; pH 5.6) was added to the cells and overlaid with a coverslip. The stained cells were viewed under a fluorescent microscope using a UV filter. Cells with brightly stained or fragmented nuclei were scored as apoptotic. A minimum of 200 cells were counted per well. The DeadEnd™ Fluorometric TUNEL (Promega) was also used to detect the DNA fragmentation that is a characteristic feature of apoptotic cells. Following Hoescht staining, the culture slide was washed briefly with distilled water, and further washed by immersing the slide twice for 5 minutes in PBS (137 mM NaCl, 2.68 mM KCl, 1.47 mM KH2PO4, 8.1 mM Na2HPO4), blotting the slide on paper towel between washes. The cells were permeabilized by immersing them in 0.2% Triton X-100 in PBS for 5 minutes. The cells were then washed again by immersing the slide twice for 5 minutes in PBS and blotting the slide on paper towel between washes. 25 μl of equilibration buffer [200 mM potassium cacodylate (pH 6.6), 25 mM. Tris-HCl (pH 6.6), 0.2 mM dithiothreitol, 0.25 mg/ml bovine serum albumin, and 2.5 mM cobalt chloride] was added per well and incubated for 5 to 10 minutes. […] Any cells with brightly stained or fragmented nuclei were scored as apoptotic. […]
# RKO cells = experiment: Western blots of RKO cells treated with Actinomycin D; settings: 0.25 μg/ml Actinomycin D for 0, 3, 7, 24, and 48 hours
# Method: FIG. 43 provides Western blots of protein extracted from RKO cells treated with 0.25 μg/ml Actinomycin D for 0, 3, 7, 24, and 48 hours. The top panel depicts a Western blot using anti-p53 as the primary antibody. The middle panel depicts a Western blot using anti-apoptosis-specific eIF-5A as the primary antibody.
# [4] = tested on: apoptosis-specific eIF-5A; experiment: Western blot of HT-29 cells treated with IFN gamma; settings: at 8 hours
# Method: FIG. 81 is a western blot of HT-29 cells treated with IFN gamma for 8 and 24 hours.
# Priming the cells with interferon gamma prior to TNF treatment causes the cells to produce more IL-8 than either treatment alone. This may be due to the known upregulation of the TNF receptor 1 in response to interferon, so ‘priming’ the cells with interferon allows them to respond to TNF better since the cells have more receptors. siRNA against apoptosis-specific eIF-5A had no effect on IL-8 production in response to TNF alone (previous experiment) however, the siRNA blocked almost all IL-8 produced in response to interferon as well as a significant amount of the IL-8 produced as a result of the combined treatment of interferon and TNF. […] FIG. 81 is a western showing up-regulation (4 fold at 8 hours) of apoptosis-specific eIF-5A in response to interferon gamma in HT-29 cells.
compound,measurement,setting,value
siRNA #3: siRNA against human apoptosis-specific eIF-5A (SEQ ID NO:32); target 5′ AAGGTCCATCTGGTTGGTATT 3′ (SEQ ID NO: 83) (AAGGUCCAUCUGGUUGGUAUUGA; unmodified RNA; listed as Homo sapiens),reduce apoptosis of LC cells,[1],50%
TNF-α,cytotoxic to LC cells,[2],not cytotoxic
"siRNA #5: control siRNA (SEQ ID NO:34) with the reverse sequence of siRNA #1; does not target eIF5A (AAAGTCGACCTTCAGTAAGGATT; listed as DNA, chemistry not fully specified; listed as Homo sapiens)",LC cells positive for TUNEL staining,[3]; 3 days after transfection,46%
"siRNA #4: siRNA against human apoptosis-specific eIF-5A (SEQ ID NO:33); target 5′ AAGCTGGACTCCTCCTACACA 3′ (SEQ ID NO: 84) (AAGCTGGACTCCTCCTACACAAT; listed as DNA, chemistry not fully specified; listed as Homo sapiens)",reduce apoptosis of LC cells,[1],69%
same,protection from apoptosis relative to the control siRNA,[3]; TUNEL,greater than 60%
"Cc1c2oc3c(C)ccc(C(=O)N[C@@H]4C(=O)N[C@H](C(C)C)C(=O)N5CCC[C@H]5C(=O)N(C)CC(=O)N(C)[C@@H](C(C)C)C(=O)O[C@@H]4C)c3nc-2c(C(=O)N[C@@H]2C(=O)N[C@H](C(C)C)C(=O)N3CCC[C@H]3C(=O)N(C)CC(=O)N(C)[C@@H](C(C)C)C(=O)O[C@@H]2C)c(N)c1=O [Actinomycin D] (I: T[dV]P[Sar][NMeV] / II: T[dV]P[Sar][NMeV]; ester I:1-I:C, II:1-II:C; linker I:N-II:N via Actinocin(9to1))",apoptosis-specific eIF-5A protein,RKO cells,upregulated
same,p53 protein,RKO cells,upregulated
siRNA #2: siRNA against human apoptosis-specific eIF-5A (SEQ ID NO:31); target 5′ AAGATCGTCGAGATGTCTACT 3′ (SEQ ID NO: 82) (AAGAUCGUCGAGAUGUCUACUUC; unmodified RNA; listed as Homo sapiens),reduce apoptosis of LC cells,[1],35%
interferon gamma: interferon gamma (Roche Diagnostics),up-regulation of apoptosis-specific eIF-5A,[4],4 fold
